Results as given in paper PMC4867112 (Biochemistry, 2016).
Each block holds one molecule with its values, some of them ahead of it.

Legend:
[1] = molecular target: T1, DREAM(Δ64) (Mus musculus, UniProt Q9QXT8); assay: Tb3+ luminescence decay titration; format: binding
T1 sequence (Q9QXT8 65-256): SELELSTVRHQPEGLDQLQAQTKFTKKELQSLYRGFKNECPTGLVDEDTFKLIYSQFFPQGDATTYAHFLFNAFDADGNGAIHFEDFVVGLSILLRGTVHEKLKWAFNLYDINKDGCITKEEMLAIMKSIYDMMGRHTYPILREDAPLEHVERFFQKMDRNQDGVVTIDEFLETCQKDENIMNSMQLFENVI

[2] = molecular target: the molecule itself; assay: fluorescence anisotropy decay

- Kd [1]: ~37 µM
Molecule: O=C(Nc1cc(C(F)(F)F)cc(C(F)(F)F)c1)Nc1c(Br)cc(Br)cc1-c1nn[nH]n1 [NS5806, 1-[2,4-dibromo-6-(1H-tetrazol-5-yl)-phenyl]-3-(3,5-bis-trifluoromethyl-phenyl)urea]

B1: DREAM(Δ64), mouse DREAM (downstream regulatory element antagonist modulator) construct lacking residues 1–64 (domain or fragment, UniProt Q9QXT8 65-256, looked up)
chain: T1 sequence (Q9QXT8 65-256)
- stoichiometry N [2]: 2
